Measured values published in patent US11364229B2, “Triple combination formulations for antiemetic therapy” (LEIUTIS PHARMACEUTICALS PVT, LTD, priority 2017, dated 2022).

Test: Effect of Meglumine on solubility (stressed at 60° C. for 24 hours, filtered)
Assay type: physicochemical
Settings: Arginine+Aspartic acid buffer system
Procedure: The samples were stressed at 60° C. for 24 hours and were analyzed after filtration.

## CNC[C@H](O)[C@@H](O)[C@H](O)[C@H](O)CO [meglumine]
  effect on solubility of Aprepitant in the buffer system: improves the solubility of Aprepitant
